In US3995059A, “Pharmaceutical compositions containing fatty acid amide derivatives” (Sumitomo Chemical Company, Limited, priority 1966, dated 1976):

Experiments:
[1] = Acute oral toxicity, LD50 (Table 2); conditions: in vivo, mouse, P.O.
Protocol: The extremely low toxicities of the present acid-amide compounds are illustrated in Table 2, in which the acute toxicities of some of the present compounds in mice are listed.
As is seen from Table 2, no fatal case and no significant toxic symptoms were observed even in such large doses (per os) as 0.5 g. per 10 g., namely 50 g./kg. of the body weight. Also, no significant toxic symptoms, or fatal cases, were observed when the amides in amounts of 1, 0.5 or 0.2% in the diet were administered to mice everyday for three weeks. The appetite was normal and digestive functions were unchanged. When the internal organs were inspected by dissection, there was no appreciable change.

Serum cholesterol = Serum cholesterol of rabbits fed a cholesterol rich diet; format: in vivo; conditions: 200 mg/day with cholesterol rich diet
[2] = system: total cholesterol value in the blood serum; assay: Total cholesterol in blood serum of mice fed a diet enriched with cholesterol and bile acids (Table 1); format: in vivo; conditions: 0.2% in diet, oral, 8 to 12 days
Protocol: The effectiveness of the compounds was tested by using mice fed on a specific diet which was enriched with cholesterol and bile acids. […] The amide compound as well was mixed with the specific diet in an amount of 0.2%, and continuously administered orally for 8 to 12 days. Then the total cholesterol value in the blood serum of the animals was evaluated.

liver cholesterol = assay: Liver cholesterol (deposition of cholesterol and fat in the liver) of mice fed a cholesterol-rich diet (Table 1); format: in vivo; conditions: 0.2% in diet, oral, 8 to 12 days
Rabbit serum cholesterol = Rabbit serum cholesterol lowering ratio after 9 weeks; format: in vivo; conditions: control 0%

## CCCCC/C=C\C/C=C\CCCCCCCC(=O)NC(Cc1ccccc1)c1ccccc1 (centres unmarked)
[1]
  LD50: > 50000 mg/kg

## CCCCC/C=C\C/C=C\CCCCCCCC(=O)N(C1CCCCC1)C1CCCCC1 [N,N-dicyclohexyl linoleamide]
Serum cholesterol; 2 weeks, control 250
  Serum cholesterol: 250 mg. %
Serum cholesterol; 4 weeks, control 563
  Serum cholesterol: 120 mg. %
Serum cholesterol; 6 weeks, control 890
  Serum cholesterol: 62 mg. %
Serum cholesterol; 8 weeks, control 1150
  Serum cholesterol: 62 mg. %
Serum cholesterol; 10 weeks, control 1750
  Serum cholesterol: 65 mg. %

## CC/C=C\C/C=C\C/C=C\CCCCCCCC(=O)NC(Cc1ccccc1)c1ccccc1 (centres unmarked) [drawing 32]
[2]; experiment [V], control 372
  Serum cholesterol: 238 mg %
Liver cholesterol; experiment [V], control 2640
  Liver cholesterol: 729 mg/100 g.

## CCCCCCCC/C=C\CCCCCCCC(=O)NC(Cc1ccccc1)c1ccccc1 (centres unmarked) [drawing 33]
[2]; experiment [V], control 372
  Serum cholesterol: 245 mg %
Liver cholesterol; experiment [V], control 2640
  Liver cholesterol: 831 mg/100 g.

## CCCCC/C=C\C/C=C\CCCCCCCC(=O)NC(C)c1ccc([N+](=O)[O-])cc1 (centres unmarked) [drawing 44]
[2]; experiment [VIII], control 472
  Serum cholesterol: 340 mg %
Liver cholesterol; experiment [VIII], control 2652
  Liver cholesterol: 1603 mg/100 g.

## CCCCC/C=C\C/C=C\CCCCCCCC(=O)NC12CC3CC(CC(C3)C1)C2 [drawing 53]
[2]; experiment [IX], control 336
  Serum cholesterol: 288 mg %
Liver cholesterol; experiment [IX], control 2200
  Liver cholesterol: 721 mg/100 g.

## CCCCC/C=C\C/C=C\CCCCCCCC(=O)NC(C)c1ccc(C)cc1 (centres unmarked) [drawing 61]
[2]; experiment [X], control 554
  Serum cholesterol: 228 mg %
Liver cholesterol; experiment [X], control 3293
  Liver cholesterol: 820 mg/100 g.

## CCCCCCCC/C=C\CCCCCCCC(=O)NC(C)c1ccc(CC)cc1 (centres unmarked) [drawing 63]
[2]; experiment [X], control 554
  Serum cholesterol: 398 mg %
Liver cholesterol; experiment [X], control 3293
  Liver cholesterol: 1210 mg/100 g.

## CCCCCCCC/C=C\CCCCCCCC(=O)NC(C)c1ccc(CC)cc1 (centres unmarked) [drawing 64]
[2]; experiment [X], control 554
  Serum cholesterol: 254 mg %
Liver cholesterol; experiment [X], control 3293
  Liver cholesterol: 841 mg/100 g.

## CC/C=C\C/C=C\C/C=C\CCCCCCCC(=O)NC(C)c1ccc(C)cc1 (centres unmarked) [drawing 66]
[2]; experiment [X], control 554
  Serum cholesterol: 249 mg %
Liver cholesterol; experiment [X], control 3293
  Liver cholesterol: 1000 mg/100 g.

## CC/C=C\C/C=C\C/C=C\CCCCCCCC(=O)NC(C)c1ccc(C)cc1 (centres unmarked) [drawing 67]
[2]; experiment [X], control 554
  Serum cholesterol: 295 mg %
Liver cholesterol; experiment [X], control 3293
  Liver cholesterol: 1015 mg/100 g.

## CCCCC/C=C\C/C=C\CCCCCCCC(=O)NC(C)c1ccc(Cl)cc1 (centres unmarked) [drawing 72]
[2]; experiment [XI], control 595
  Serum cholesterol: 230 mg %
Liver cholesterol; experiment [XI], control 3451
  Liver cholesterol: 845 mg/100 g.

## CCCCC/C=C\C/C=C\CCCCCCCC(=O)NC(C)c1ccc([N+](=O)[O-])cc1 (centres unmarked) [drawing 73]
[2]; experiment [XI], control 595
  Serum cholesterol: 275 mg %
Liver cholesterol; experiment [XI], control 3451
  Liver cholesterol: 1011 mg/100 g.

## CCCCC/C=C\C/C=C\CCCCCCCC(=O)NC(C)c1ccc([N+](=O)[O-])cc1 (centres unmarked) [drawing 74]
[2]; experiment [XI], control 595
  Serum cholesterol: 315 mg %
Liver cholesterol; experiment [XI], control 3451
  Liver cholesterol: 1098 mg/100 g.

## CCCCCCCC/C=C\CCCCCCCC(=O)NC(C)c1ccc(Br)cc1 (centres unmarked) [drawing 78]
[2]; experiment [XI], control 595
  Serum cholesterol: 253 mg %
Liver cholesterol; experiment [XI], control 3451
  Liver cholesterol: 921 mg/100 g.

## CCCCCCCC/C=C\CCCCCCCC(=O)NC(C)c1ccc(Br)cc1 (centres unmarked) [drawing 79]
[2]; experiment [XI], control 595
  Serum cholesterol: 277 mg %
Liver cholesterol; experiment [XI], control 3451
  Liver cholesterol: 1009 mg/100 g.

## CCCCCCCC/C=C\CCCCCCCC(=O)NC(CC)c1cccc([N+](=O)[O-])c1 (centres unmarked) [drawing 81]
[2]; experiment [XI], control 595
  Serum cholesterol: 289 mg %
Liver cholesterol; experiment [XI], control 3451
  Liver cholesterol: 906 mg/100 g.

## CCCCCCCC/C=C\CCCCCCCC(=O)NC(CC)c1cccc([N+](=O)[O-])c1 (centres unmarked) [drawing 82]
[2]; experiment [XI], control 595
  Serum cholesterol: 315 mg %
Liver cholesterol; experiment [XI], control 3451
  Liver cholesterol: 1125 mg/100 g.

## CCCCCCCC/C=C\CCCCCCCC(=O)NC(C)c1ccc(OC)cc1 (centres unmarked) [drawing 84]
[2]; experiment [XI], control 595
  Serum cholesterol: 306 mg %
Liver cholesterol; experiment [XI], control 3451
  Liver cholesterol: 1069 mg/100 g.

## CCCCCCCC/C=C\CCCCCCCC(=O)NC(C)c1ccc(OC)cc1 (centres unmarked) [drawing 85]
[2]; experiment [XI], control 595
  Serum cholesterol: 318 mg %
Liver cholesterol; experiment [XI], control 3451
  Liver cholesterol: 1115 mg/100 g.

## CC/C=C\C/C=C\C/C=C\CCCCCCCC(=O)NC(C)c1cccc(Cl)c1 (centres unmarked) [drawing 95]
[2]; experiment [XI], control 595
  Serum cholesterol: 275 mg %
Liver cholesterol; experiment [XI], control 3451
  Liver cholesterol: 995 mg/100 g.

## CC/C=C\C/C=C\C/C=C\CCCCCCCC(=O)NC(C)c1cccc(Cl)c1 (centres unmarked) [drawing 96]
[2]; experiment [XI], control 595
  Serum cholesterol: 300 mg %
Liver cholesterol; experiment [XI], control 3451
  Liver cholesterol: 1029 mg/100 g.

## CC/C=C\C/C=C\C/C=C\CCCCCCCC(=O)NC(CC)c1ccc([N+](=O)[O-])cc1 (centres unmarked) [drawing 97]
[2]; experiment [XI], control 595
  Serum cholesterol: 245 mg %
Liver cholesterol; experiment [XI], control 3451
  Liver cholesterol: 1004 mg/100 g.

## CC/C=C\C/C=C\C/C=C\CCCCCCCC(=O)NC(CC)c1ccc([N+](=O)[O-])cc1 (centres unmarked) [drawing 98]
[2]; experiment [XI], control 595
  Serum cholesterol: 365 mg %
Liver cholesterol; experiment [XI], control 3451
  Liver cholesterol: 1325 mg/100 g.

## CC/C=C\C/C=C\C/C=C\CCCCCCCC(=O)NC(Cc1ccccc1)c1ccccc1 (centres unmarked) [drawing 99]
[2]; experiment [XI], control 595
  Serum cholesterol: 240 mg %
Liver cholesterol; experiment [XI], control 3451
  Liver cholesterol: 623 mg/100 g.

## CC/C=C\C/C=C\C/C=C\CCCCCCCC(=O)NC(Cc1ccccc1)c1ccccc1 (centres unmarked) [drawing 100]
[2]; experiment [XI], control 595
  Serum cholesterol: 275 mg %
Liver cholesterol; experiment [XI], control 3451
  Liver cholesterol: 1632 mg/100 g.

## CC/C=C\C/C=C\C/C=C\CCCCCCCC(=O)NC(CC)c1ccc(OC)cc1 (centres unmarked) [drawing 102]
[2]; experiment [XI], control 595
  Serum cholesterol: 280 mg %
Liver cholesterol; experiment [XI], control 3451
  Liver cholesterol: 870 mg/100 g.

## CC/C=C\C/C=C\C/C=C\CCCCCCCC(=O)NC(CC)c1ccc(OC)cc1 (centres unmarked) [drawing 103]
[2]; experiment [XI], control 595
  Serum cholesterol: 339 mg %
Liver cholesterol; experiment [XI], control 3451
  Liver cholesterol: 1620 mg/100 g.

## CCCCC/C=C\C/C=C\CCCCCCCC(=O)NC(C)c1ccccc1 (centres unmarked) [drawing 136]
[1]
  LD50: > 50000 mg/kg

## CCCCC/C=C\C/C=C\CCCCCCCC(=O)NC(C)c1ccc(C)cc1 (centres unmarked) [drawing 138]
[1]
  LD50: > 50000 mg/kg

## CCCCC/C=C\C/C=C\CCCCCCCC(=O)NC12CC3CC(CC(C3)C1)C2 [drawing 140]
[1]
  LD50: > 50000 mg/kg

## CCCCC/C=C\C/C=C\CCCCCCCC(=O)NC(C)c1ccccc1 (centres unmarked) [drawing 144]
Serum cholesterol; 2 weeks, control 250
  Serum cholesterol: 250 mg. %
Serum cholesterol; 4 weeks, control 563
  Serum cholesterol: 130 mg. %
Serum cholesterol; 6 weeks, control 890
  Serum cholesterol: 65 mg. %
Serum cholesterol; 8 weeks, control 1150
  Serum cholesterol: 60 mg. %
Serum cholesterol; 10 weeks, control 1750
  Serum cholesterol: 52 mg. %

## CCCCC/C=C\C/C=C\CCCCCCCC(=O)NC(C)c1ccc(C)cc1 (centres unmarked) [drawing 145]
Rabbit serum cholesterol; 100 mg/kg/day
  Rabbit serum cholesterol Towering ratio (after 9 weeks): 60.1%

## CCCCC/C=C\C/C=C\CCCCCCCC(=O)NC(CC)c1ccc(C)cc1 (centres unmarked) [drawing 146]
Rabbit serum cholesterol; 100 mg/kg/day
  Rabbit serum cholesterol Towering ratio (after 9 weeks): 59.2%

## CCCCC/C=C\C/C=C\CCCCCCCC(=O)NC(C)c1ccc(Cl)cc1 (centres unmarked) [drawing 147]
Rabbit serum cholesterol; 100 mg/kg/day
  Rabbit serum cholesterol Towering ratio (after 9 weeks): 80.1%

## CCCCC/C=C\C/C=C\CCCCCCCC(=O)NC(C)c1ccc(Cl)c(Cl)c1 (centres unmarked) [drawing 148]
Rabbit serum cholesterol; 100 mg/kg/day
  Rabbit serum cholesterol Towering ratio (after 9 weeks): 61.5%

## CC/C=C\C/C=C\C/C=C\CCCCCCCC(=O)NC(C)c1ccccc1C (centres unmarked) [drawing 151]
Rabbit serum cholesterol; 100 mg/kg/day
  Rabbit serum cholesterol Towering ratio (after 9 weeks): 54.5%

## CC(C)CCCCCCCCCCCCCCC(=O)NC(Cc1ccccc1)c1ccccc1 (centres unmarked) [iso-C17 H35 CO]
[2]; experiment [V], control 372
  Serum cholesterol: 221 mg %
Liver cholesterol; experiment [V], control 2640
  Liver cholesterol: 609 mg/100 g.

## CCCCCC=CCC=CCCCCCCCC(=O)NC(Cc1ccccc1)c1ccccc1 (stereo not drawn) [l- C17 H31 CO]
[2]; experiment [V], control 372
  Serum cholesterol: 208 mg %
Liver cholesterol; experiment [V], control 2640
  Liver cholesterol: 623 mg/100 g.

## CCCCCCCC/C=C\CCCCCCCC(=O)NC(Cc1ccccc1)c1ccccc1 (stereo not drawn) [l- drawing 33]
[2]; experiment [V], control 372
  Serum cholesterol: 263 mg %
Liver cholesterol; experiment [V], control 2640
  Liver cholesterol: 888 mg/100 g.

## CC[C@H](CC[C@@H](C)[C@H]1CC[C@H]2[C@@H]3CC=C4C[C@@H](O)CC[C@]4(C)[C@H]3CC[C@]12C)C(C)C [β-Sitosterol, reference compound]
Rabbit serum cholesterol; 800 mg/kg/day
  Rabbit serum cholesterol Towering ratio (after 9 weeks): 21.2%
Serum cholesterol; 2 weeks, control 250
  Serum cholesterol: 250 mg. %
Serum cholesterol; 4 weeks, control 563
  Serum cholesterol: 438 mg. %
Serum cholesterol; 6 weeks, control 890
  Serum cholesterol: 875 mg. %
Serum cholesterol; 8 weeks, control 1150
  Serum cholesterol: 1063 mg. %
Serum cholesterol; 10 weeks, control 1750
  Serum cholesterol: 1200 mg. %
